{
  "source": "paper PMC10035370",
  "about": "“Targeting Tumor Angiogenesis with the Selective VEGFR-3 Inhibitor EVT801 in Combination with Cancer Immunotherapy” (Cancer Research Communications, 2022)",
  "key": {"NCI-H1703 cells": {"tested_on": "NCI-H1703 cells", "assay": "NCI-H1703 viability (ATP reduction)", "format": "cell-based", "conditions": "Homo sapiens, in vitro", "method": "NCI-H1703 were seeded in 96-well plates coated with 0.3 % gelatin (5 x 10^3 cells per well) and were incubated in RPMI 0.1 % FCS with VEGF-C (300 ng/mL) or VEGF-D (300 ng/mL) in the absence or presence of increasing doses of EVT801. After 5 days, viable cells were quantified with the cell Titer-glo luminescent cell viability assay (Promega) as previously described (1)."}, "[1]": {"tested_on": "NCI-H1703 tumor xenografts", "assay": "NCI-H1703 subcutaneous xenograft tumor mouse model", "format": "in vivo, mice", "conditions": "30 mg/kg twice per day", "method": "A total number of 40 homozygous NOD.CB17 Prkdc^scid/NCrHsd mice were used for the xenograft tumor model. On the day of implantation, NCI-H1703 cells were harvested and suspended at a concentration of 1 × 10^8 cells per mL in an equal mix of Cultrex:RPMI without supplements. A volume of 100 μL was injected into the right hind flank of each animal. Tumor volumes were monitored until mean tumor volume reached 150 mm^3. Then, mice were stratified into four treatment groups of each 10 mice and orally dosed twice per day with either EVT801 30 mg/kg and EVT801 vehicle [Soluplus (BASF)/water/hydroxypropylcellulose SL (Nisso America)], or 30 mk/kg pazopanib and pazopanib vehicle (0.5% Hydroxypropyl methylcellulose trimellitate (HPMCT) + 0.1% Tween-80). A period of 8 hours was observed between the first and second daily dose."}, "RT-HAM-001 tumors": {"tested_on": "RT-HAM-001 tumors", "assay": "RT-001-HAM subcutaneous patient-derived xenograft tumor mouse model", "format": "in vivo, mice", "conditions": "30 mg/kg twice per day, 7-day treatment", "method": "Patient-derived tumors of the same passage were transplanted subcutaneously outbred athymic (nu/nu) female HSD mice. When tumor volume reached 726 to 1,437 mm^3, 4 donor mice were sacrificed by cervical dislocation, and tumors were aseptically excised and dissected. After removing necrotic areas, tumor fragments of approximately 20 mm^3 were transferred to culture medium before grafting. A total of 108 mice were anesthetized with 100 mg/kg ketamine hydrochloride (Virbac) and 10 mg/kg xylazine (Bayer). Then, a tumor fragment was placed in the subcutaneous tissue of an incision at the level of the interscapular region as described previously ([30]). All mice from the same experiment were implanted on the same day. A total of 54 mice with RT-001-HAM established growing tumor (P6.0.0/0) between 62.5 and 196 mm^3 were allocated according to tumor volume, ensuring homogenous median and mean tumor volume in each treatment arm. Treatments with 5 mL/kg vehicle, 30 mg/kg EVT801, or 30 mg/kg pazopanib started 15 days after tumor implantation and continued twice per day until termination 7 days later. Tumor volumes were measured via a caliper three times a week during the treatment period. All animals were weighed at the same time as tumor size measurement. Plasma and fresh tumor samples were collected at different timepoints after final dose at day 7 from all mice."}, "DEN-induced liver tumor": {"tested_on": "DEN-induced liver tumor", "assay": "N-diethylnitrosamine-induced hepatocarcinoma mouse model", "format": "in vivo, mice", "conditions": "30 mg/kg daily for 2 months", "method": "After weighing, 38 male C3/H mice received a 10 mg/kg dose of N-diethylnitrosamine (DEN) intraperitoneally, whereas a group of 5 animals was kept without DEN injection as control group. After 12 months, mice that received DEN injection were randomized by weight in two groups of each 19 animals. The mice were dosed daily orally for 2 months either with EVT801 or vehicle. On the day of termination, mice treated with EVT801 received a last dose of 30 mg/kg to take blood and tumor samples for compound concentration determination. After incision of the peritoneal cavity, blood was taken from the vena cava. Following excision and weighing of the liver, the number of tumors per liver was counted. The tumor burden was calculated as the sum of individual tumor volumes for each mouse. No blood sampling was performed on control and vehicle groups. Plasma and tumor samples were stored at −20°C until analysis. Concentration of EVT801 was determined by LC/MS-MS."}, "[2]": {"assay": "Blood pressure in telemetered rat model of hypertension", "format": "in vivo", "conditions": "single oral administration of 10, 30 or 100 mg/kg", "method": "Supplementary Figure 8. EVT801 and sorafenib show opposing effects on blood pressure in rats. (A) Monitoring of the blood pressure over 24 h after single oral administration of 100 mg/kg EVT801 or 500 mg/kg of EVT801, compared to animals treated with vehicle. (B) Monitoring of the blood pressure over 24 h after single oral administration of 10 mg/kg sorafenib, 30 mg/kg sorafenib or 100 mg/kg of sorafenib, compared to animals treated with vehicle."}, "hLMVEC": {"tested_on": "hLMVEC", "assay": "Growth factor-induced hLMVEC proliferation", "format": "cell-based, human", "conditions": "stimulation by the ligand", "method": "hLMVEC were seeded in white cell culture-treated flat and clear bottom multi-well plates and incubated at 37 °C overnight, before compounds were added. After incubation for 72 h at 37 °C, plates were equilibrated to ambient temperature for 1 h, and CellTiterGlo reagent (Promega) was added. After approximately 1h, luminescence was measured using a luminometer. Curves were fitted via sigmoidal dose response curves, and IC50 values were determined."}},
  "data": [
    {"molecule": "Cc1ccc(Nc2nccc(N(C)c3ccc4c(C)n(C)nc4c3)n2)cc1S(N)(=O)=O", "note": "[pazopanib, reference compound]", "values": [
      {"measurement": "IC50", "setting": "NCI-H1703 cells", "value": 90, "unit": "nM"},
      {"measurement": "CD31 IHC, tumor vessels", "setting": "[1]", "value": "decreased the number of vessels while increasing the proportion of larger ones"},
      {"measurement": "decrease of tumor weight compared with vehicle", "setting": "[1]; endpoint", "value": 56, "unit": "%"},
      {"measurement": "T/C ratio, tumor growth", "setting": "[1]; oral, vs corresponding vehicle", "value": 53, "unit": "%"},
      {"measurement": "T/C ratio, tumor volume", "setting": "RT-HAM-001 tumors", "value": 77, "unit": "%"},
      {"measurement": "size of necrotic areas in tumors", "setting": "RT-HAM-001 tumors", "value": "remained unaffected"},
      {"measurement": "hypoxic areas (CAIX) in tumors", "setting": "RT-HAM-001 tumors; not statistically significant", "value": "showed opposing effects"}
    ]},
    {"molecule": "CNC(=O)c1cc(Oc2ccc(NC(=O)Nc3ccc(Cl)c(C(F)(F)F)c3)cc2)ccn1", "note": "[sorafenib, reference compound]", "values": [
      {"measurement": "T/C ratio, tumor growth", "setting": "DEN-induced liver tumor", "value": 32, "unit": "%"},
      {"measurement": "liver weight", "setting": "DEN-induced liver tumor", "value": "reduced liver weight"},
      {"measurement": "effect on blood pressure", "setting": "[2]", "value": "showed the opposite effect"}
    ]},
    {"molecule": "VEGF-D: VEGFR-3 ligand (protein, UniProt O43915 89-205, looked up) Vascular endothelial growth …: FAATFYDIETLKVIDEEWQRTQCSPRETCVEVASELGKSTNTFFKPPCVNVFRCGGCCNEESLICMNTSTSYISKQLFEISVPLTSVPELVPVKVANHTGCKCLPTAPRHPYSIIRR", "values": [
      {"measurement": "increase in hLMVEC proliferation", "setting": "hLMVEC", "value": 34, "unit": "%"}
    ]},
    {"molecule": "VEGF-C: VEGFR-3 ligand (protein, UniProt P49767 112-227, looked up) Vascular endothelial growth …: AHYNTEILKSIDNEWRKTQCMPREVCIDVGKEFGVATNTFFKPPCVSVYRCGGCCNSEGLQCMNTSTSYLSKTLFEITVPLSQGPKPVTISFANHTSCRCMSKLDVYRQVHSIIRR", "values": [
      {"measurement": "increase in hLMVEC proliferation", "setting": "hLMVEC", "value": 50, "unit": "%"}
    ]}
  ]
}
